Consider one compound from patent publication US10881653B2, “Tricyclic compounds and their use in the treatment of cancer” (The United States of America, as represented by the …, priority 2015, dated 2021).

Where a name gives a salt, the structure may show the parent alone. Read-outs that look alike come from different tables or passages of the source.

In the assay the target is T1, recombinant thioredoxin reductase 1 (TrxR1) (Homo sapiens, UniProt Q16881).
T1 sequence (Q16881 1-649): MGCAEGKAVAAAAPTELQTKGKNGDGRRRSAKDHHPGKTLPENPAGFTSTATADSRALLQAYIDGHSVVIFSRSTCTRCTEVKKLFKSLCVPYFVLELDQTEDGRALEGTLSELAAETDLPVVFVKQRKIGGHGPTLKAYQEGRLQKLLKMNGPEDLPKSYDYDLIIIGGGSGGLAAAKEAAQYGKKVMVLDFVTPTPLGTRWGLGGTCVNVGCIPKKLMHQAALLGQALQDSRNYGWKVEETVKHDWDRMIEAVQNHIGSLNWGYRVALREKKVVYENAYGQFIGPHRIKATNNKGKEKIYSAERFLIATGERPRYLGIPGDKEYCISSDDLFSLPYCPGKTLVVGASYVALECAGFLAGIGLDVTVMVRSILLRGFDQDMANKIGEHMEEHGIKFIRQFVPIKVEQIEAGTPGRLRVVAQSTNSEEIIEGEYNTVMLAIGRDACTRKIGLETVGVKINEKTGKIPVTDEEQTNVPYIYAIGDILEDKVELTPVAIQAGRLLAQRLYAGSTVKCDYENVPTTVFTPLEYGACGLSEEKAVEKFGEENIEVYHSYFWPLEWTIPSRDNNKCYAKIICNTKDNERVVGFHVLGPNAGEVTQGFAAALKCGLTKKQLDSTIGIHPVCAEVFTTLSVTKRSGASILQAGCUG
Nature of the assay: Inhibition of recombinant TrxR1 (DTNB assay). Type of assay: biochemical. In short, it runs like this:
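Human TrxR1 (15 nM) or GR (2 nM) preincubated 15 min with compound, 250 μM NADPH, 0.1 mg/ml BSA in 50 mM Tris pH 7.5, 2 mM EDTA, 1% DMSO. Reaction started with 2.5 mM DTNB (TrxR1, A412) or 1 mM GSSG (GR, A340). Percent activity relative to DMSO and no-enzyme blanks.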

For the compound `O=C1C=C[C@H]2[C@@H]3C(=O)N(c4ccccc4)C(=O)[C@@H]3[C@@H]1N2Cc1ccccc1` (relative stereo) [Example 1, exo-11-Benzyl-4-phenyl-4,11-diazatricyclo[5.3.1.0^2,6]undec-9-ene-3,5,8-trione Trifluoroacetate], the IC50 by setting is: (Biological Example 1, 15 nM TrxR1, 250 μM NADPH, 15 minutes incubation, read-out: TrxR inhibition) 2140 nM; (Biological Example 4, assays of Biological Example 1, read-out: TrxR Inhibition) 2190 nM.
